For four molecules, EC50 and Kact results are on record in ChEMBL document CHEMBL4400574, “Chemical synthesis and biological activity of novel brominated 7-deazaadenosine-3',5'-cyclic monophosphate derivatives” (Bioorg Med Chem, 2019).

Test [1] has as its target T1, Rap guanine nucleotide exchange factor 4 (Mus musculus, UniProt Q9EQZ6).
T1 sequence (Q9EQZ6 whole entry): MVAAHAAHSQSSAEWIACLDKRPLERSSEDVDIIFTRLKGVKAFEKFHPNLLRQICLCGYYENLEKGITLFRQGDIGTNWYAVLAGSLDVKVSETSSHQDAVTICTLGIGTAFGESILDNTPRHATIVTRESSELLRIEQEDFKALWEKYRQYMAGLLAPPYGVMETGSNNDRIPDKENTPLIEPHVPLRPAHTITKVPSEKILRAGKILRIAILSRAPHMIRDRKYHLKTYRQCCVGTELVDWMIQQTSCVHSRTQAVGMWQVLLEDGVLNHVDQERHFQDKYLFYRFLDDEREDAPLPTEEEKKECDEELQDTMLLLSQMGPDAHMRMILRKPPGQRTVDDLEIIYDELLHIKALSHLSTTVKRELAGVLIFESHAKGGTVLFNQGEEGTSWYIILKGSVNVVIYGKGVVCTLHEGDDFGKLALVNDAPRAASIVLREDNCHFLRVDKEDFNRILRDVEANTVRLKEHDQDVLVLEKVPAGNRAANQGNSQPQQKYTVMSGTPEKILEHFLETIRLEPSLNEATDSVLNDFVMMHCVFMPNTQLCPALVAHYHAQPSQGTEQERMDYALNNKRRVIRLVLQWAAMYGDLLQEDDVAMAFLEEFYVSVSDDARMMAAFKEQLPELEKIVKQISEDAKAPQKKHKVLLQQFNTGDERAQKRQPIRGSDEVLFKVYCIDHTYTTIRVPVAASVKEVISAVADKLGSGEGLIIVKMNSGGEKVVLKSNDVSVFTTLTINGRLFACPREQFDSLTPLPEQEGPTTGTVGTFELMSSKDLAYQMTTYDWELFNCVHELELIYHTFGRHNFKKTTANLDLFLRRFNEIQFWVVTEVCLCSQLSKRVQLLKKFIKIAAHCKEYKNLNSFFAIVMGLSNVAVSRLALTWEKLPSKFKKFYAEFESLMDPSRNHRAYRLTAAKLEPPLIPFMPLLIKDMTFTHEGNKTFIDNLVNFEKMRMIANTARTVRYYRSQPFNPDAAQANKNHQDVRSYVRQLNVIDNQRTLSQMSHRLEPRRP
Nature of the test: Inhibition of 8Fluo-cAMP binding to DEP domain deficient mouse EPAC2 (280 to 998 residues) measured after 5 mins by fluorescence polarization assay.

Test [2] concerns the target CNGA2/CNGA4/CNGB1 (Rattus norvegicus, UniProt O35788+Q00195+Q64359). Briefly: Activation of recombinant rat CNGA2/CNGA4/CNGB1b heterotetramer expressed in Xenopus laevis oocyte assessed as increase in current amplitude by patch-clamp electrophysiology method.
Test [3] deals with cAMP-dependent protein kinase type I-alpha regulatory subunit (Homo sapiens) (UniProt P10644).
Chain of cAMP-dependent protein kinase type I-alpha regulatory subunit (Homo sapiens) (P10644 whole entry): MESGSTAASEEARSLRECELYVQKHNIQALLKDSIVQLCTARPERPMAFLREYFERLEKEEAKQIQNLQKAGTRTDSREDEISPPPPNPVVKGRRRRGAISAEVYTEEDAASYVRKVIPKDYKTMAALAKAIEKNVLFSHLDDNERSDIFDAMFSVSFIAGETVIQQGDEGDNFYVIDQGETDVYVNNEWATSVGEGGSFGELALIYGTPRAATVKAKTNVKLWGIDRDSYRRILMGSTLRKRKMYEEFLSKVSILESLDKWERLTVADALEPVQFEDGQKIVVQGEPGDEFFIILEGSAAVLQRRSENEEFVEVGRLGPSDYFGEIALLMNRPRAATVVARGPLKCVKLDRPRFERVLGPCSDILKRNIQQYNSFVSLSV
Description: Activation of recombinant human PKAR1alpha expressed in Escherichia coli using Kemptide as substrate by spectrophotometric method
Test [4] deals with T2, Cyclic nucleotide-gated channel alpha-2 (Rattus norvegicus, UniProt Q00195).
T2 sequence (Q00195 whole entry): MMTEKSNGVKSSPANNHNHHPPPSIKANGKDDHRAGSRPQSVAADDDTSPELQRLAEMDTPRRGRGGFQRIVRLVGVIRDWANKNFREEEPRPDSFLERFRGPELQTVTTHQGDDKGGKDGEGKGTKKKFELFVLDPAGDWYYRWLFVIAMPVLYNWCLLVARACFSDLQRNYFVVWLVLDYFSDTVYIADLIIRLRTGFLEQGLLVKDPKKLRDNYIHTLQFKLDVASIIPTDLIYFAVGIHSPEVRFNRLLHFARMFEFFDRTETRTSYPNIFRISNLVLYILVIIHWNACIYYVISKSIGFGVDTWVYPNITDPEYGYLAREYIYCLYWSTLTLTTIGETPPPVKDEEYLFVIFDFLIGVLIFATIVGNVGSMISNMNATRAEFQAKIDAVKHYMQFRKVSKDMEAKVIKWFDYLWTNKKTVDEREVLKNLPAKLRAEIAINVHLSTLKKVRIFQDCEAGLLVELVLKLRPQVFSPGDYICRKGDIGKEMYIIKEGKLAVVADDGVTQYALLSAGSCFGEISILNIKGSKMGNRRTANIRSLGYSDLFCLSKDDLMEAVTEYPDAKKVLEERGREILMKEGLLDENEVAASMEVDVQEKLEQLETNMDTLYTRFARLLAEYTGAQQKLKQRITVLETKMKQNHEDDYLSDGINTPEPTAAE
Briefly: Activation of recombinant rat CNGA2 expressed in Xenopus laevis oocyte assessed as increase in current amplitude by patch-clamp electrophysiology method.

Test [5] addresses T3, Rap guanine nucleotide exchange factor 3 (Homo sapiens, UniProt O95398).
T3 sequence (O95398 whole entry): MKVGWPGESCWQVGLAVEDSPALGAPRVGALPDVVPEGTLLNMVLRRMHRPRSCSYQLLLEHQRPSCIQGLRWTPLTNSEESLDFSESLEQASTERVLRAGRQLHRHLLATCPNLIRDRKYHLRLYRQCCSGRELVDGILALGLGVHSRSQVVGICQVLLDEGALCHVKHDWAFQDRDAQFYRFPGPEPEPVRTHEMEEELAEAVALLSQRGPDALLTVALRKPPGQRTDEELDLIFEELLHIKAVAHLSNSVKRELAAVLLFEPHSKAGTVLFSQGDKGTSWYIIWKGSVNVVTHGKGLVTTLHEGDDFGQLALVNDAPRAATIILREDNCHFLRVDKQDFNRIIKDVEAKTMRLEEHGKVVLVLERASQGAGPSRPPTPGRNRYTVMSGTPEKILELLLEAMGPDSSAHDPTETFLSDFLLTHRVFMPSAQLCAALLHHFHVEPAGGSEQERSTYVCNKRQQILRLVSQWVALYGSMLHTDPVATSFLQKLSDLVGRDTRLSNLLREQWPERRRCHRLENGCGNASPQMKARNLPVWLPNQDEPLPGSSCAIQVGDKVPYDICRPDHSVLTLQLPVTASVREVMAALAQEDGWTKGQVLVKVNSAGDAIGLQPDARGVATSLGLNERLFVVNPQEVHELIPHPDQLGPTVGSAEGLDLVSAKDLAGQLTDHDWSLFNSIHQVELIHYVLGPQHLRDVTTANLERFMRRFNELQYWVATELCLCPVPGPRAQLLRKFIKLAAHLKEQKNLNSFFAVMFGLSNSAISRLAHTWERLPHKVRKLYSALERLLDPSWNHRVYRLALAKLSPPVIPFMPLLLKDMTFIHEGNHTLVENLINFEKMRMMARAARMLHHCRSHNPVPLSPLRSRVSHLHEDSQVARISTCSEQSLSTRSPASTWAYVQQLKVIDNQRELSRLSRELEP
Briefly: Inhibition of 8Fluo-cAMP binding to recombinant human His-tagged EPAC1 (157 to 881 residues) expressed in Escherichia coli measured after 5 mins by fluorescence polarization assay.

The target in test [6] is cAMP-dependent protein kinase type II-alpha regulatory subunit (Homo sapiens) (UniProt P13861).
Chain of cAMP-dependent protein kinase type II-alpha regulatory subunit (Homo sapiens) (P13861 whole entry): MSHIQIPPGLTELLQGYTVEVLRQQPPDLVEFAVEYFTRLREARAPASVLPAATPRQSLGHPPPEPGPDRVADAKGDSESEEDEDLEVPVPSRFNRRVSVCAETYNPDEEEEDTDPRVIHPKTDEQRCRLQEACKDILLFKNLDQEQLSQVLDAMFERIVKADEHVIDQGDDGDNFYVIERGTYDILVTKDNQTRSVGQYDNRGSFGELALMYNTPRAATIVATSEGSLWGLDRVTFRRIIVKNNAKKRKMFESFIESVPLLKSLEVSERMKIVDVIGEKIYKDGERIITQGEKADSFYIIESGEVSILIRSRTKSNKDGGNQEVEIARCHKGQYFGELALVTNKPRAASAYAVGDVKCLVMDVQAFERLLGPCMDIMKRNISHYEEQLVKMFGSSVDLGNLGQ
Description: Activation of recombinant human PKAR2alpha expressed in Escherichia coli using Kemptide as substrate by spectrophotometric method
In test [7] the target is T4, Potassium/sodium hyperpolarization-activated cyclic nucleotide-gated channel 2 (Mus musculus, UniProt O88703).
T4 sequence (O88703 whole entry): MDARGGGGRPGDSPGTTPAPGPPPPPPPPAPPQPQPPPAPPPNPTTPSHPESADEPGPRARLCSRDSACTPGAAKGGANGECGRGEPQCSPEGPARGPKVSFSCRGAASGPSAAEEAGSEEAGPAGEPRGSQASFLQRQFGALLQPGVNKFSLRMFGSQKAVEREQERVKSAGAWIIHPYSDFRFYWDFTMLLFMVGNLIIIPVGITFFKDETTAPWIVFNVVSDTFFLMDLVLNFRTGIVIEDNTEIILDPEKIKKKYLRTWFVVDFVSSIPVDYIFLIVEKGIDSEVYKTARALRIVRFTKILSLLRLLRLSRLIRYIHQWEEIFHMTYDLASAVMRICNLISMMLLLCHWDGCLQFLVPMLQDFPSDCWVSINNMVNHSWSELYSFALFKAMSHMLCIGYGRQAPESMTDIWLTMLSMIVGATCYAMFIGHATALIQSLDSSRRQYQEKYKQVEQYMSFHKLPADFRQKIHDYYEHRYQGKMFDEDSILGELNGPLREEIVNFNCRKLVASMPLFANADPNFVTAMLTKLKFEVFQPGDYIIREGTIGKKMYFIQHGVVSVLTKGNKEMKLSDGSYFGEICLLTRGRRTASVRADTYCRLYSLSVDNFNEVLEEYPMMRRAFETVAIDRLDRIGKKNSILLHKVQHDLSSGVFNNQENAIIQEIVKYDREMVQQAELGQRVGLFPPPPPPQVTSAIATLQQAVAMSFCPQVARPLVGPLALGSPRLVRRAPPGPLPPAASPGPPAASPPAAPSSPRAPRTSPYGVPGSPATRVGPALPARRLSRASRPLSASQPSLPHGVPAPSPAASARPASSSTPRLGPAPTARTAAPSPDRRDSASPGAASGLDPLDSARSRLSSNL
Nature of the test: Activation of recombinant mouse HCN2 expressed in Xenopus laevis oocyte assessed as increase in current amplitude at -30 mV holding potential by patch-clamp electrophysiology method.

Chain of CNGA2/CNGA4/CNGB1 (Q64359 whole entry, one chain of several): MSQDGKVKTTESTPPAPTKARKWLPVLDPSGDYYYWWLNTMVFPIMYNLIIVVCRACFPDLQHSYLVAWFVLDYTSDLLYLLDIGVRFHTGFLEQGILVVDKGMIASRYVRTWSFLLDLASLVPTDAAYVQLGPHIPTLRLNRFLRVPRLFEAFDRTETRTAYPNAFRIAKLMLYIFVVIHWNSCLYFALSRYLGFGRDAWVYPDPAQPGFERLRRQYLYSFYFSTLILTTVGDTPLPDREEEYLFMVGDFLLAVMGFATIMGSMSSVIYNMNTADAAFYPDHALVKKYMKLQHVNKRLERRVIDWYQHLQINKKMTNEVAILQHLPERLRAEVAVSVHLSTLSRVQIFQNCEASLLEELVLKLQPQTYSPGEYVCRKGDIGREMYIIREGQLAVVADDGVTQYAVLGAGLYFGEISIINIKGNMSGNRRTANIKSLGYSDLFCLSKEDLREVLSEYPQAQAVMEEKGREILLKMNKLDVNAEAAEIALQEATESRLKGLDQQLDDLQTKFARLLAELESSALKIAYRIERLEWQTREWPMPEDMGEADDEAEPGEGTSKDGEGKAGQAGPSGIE
Chain of CNGA2/CNGA4/CNGB1 (O35788 whole entry, one chain of several): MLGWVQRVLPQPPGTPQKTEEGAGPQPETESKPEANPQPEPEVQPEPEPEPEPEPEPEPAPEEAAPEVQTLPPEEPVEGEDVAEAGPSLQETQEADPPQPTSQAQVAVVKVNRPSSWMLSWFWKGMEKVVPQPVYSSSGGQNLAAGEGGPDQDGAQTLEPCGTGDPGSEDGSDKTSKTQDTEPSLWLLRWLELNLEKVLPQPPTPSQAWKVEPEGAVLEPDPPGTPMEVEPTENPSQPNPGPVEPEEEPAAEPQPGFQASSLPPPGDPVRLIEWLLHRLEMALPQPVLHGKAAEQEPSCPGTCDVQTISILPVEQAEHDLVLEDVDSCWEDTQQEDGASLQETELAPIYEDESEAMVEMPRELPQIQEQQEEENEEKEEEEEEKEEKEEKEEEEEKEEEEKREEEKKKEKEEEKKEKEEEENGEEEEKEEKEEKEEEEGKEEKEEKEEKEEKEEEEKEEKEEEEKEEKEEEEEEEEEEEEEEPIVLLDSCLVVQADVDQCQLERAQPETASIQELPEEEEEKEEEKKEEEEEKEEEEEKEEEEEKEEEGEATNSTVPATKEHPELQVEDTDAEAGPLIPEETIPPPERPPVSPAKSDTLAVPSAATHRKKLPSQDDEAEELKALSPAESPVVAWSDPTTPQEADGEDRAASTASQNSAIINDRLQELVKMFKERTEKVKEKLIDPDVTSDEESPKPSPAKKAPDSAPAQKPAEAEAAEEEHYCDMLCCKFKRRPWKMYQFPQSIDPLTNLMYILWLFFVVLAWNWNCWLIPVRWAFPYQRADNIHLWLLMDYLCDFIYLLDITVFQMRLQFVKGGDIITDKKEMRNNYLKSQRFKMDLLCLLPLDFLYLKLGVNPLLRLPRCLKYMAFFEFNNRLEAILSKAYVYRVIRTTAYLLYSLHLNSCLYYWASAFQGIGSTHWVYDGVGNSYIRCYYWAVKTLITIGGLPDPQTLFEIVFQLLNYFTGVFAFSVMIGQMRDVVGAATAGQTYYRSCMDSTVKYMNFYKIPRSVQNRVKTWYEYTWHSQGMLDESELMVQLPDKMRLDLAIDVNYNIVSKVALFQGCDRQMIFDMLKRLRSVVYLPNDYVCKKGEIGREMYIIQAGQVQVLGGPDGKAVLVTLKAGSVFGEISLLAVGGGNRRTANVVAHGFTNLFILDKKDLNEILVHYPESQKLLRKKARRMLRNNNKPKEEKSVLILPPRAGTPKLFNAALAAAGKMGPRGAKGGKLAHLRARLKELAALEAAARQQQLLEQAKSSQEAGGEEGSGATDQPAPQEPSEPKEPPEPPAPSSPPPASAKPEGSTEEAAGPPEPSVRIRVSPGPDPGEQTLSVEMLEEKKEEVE

Take `Nc1ncnc2c1nc(Br)n2[C@@H]1O[C@@H]2COP(=O)(O)O[C@H]2[C@H]1O`: the half-maximal effective concentration (EC50) in test [1] came to 780 nM; in test [2] it was 1600 nM; in test [4], 15400 nM; in test [5], 1090 nM. In addition, the Kact in test [3] came out at 0.056 µM; in test [6], 0.088 µM.

With `Nc1ncnc2c1c(Br)cn2[C@@H]1O[C@@H]2COP(=O)(O)O[C@H]2[C@H]1O`, the EC50 was 2360 nM in test [1], 120 nM in test [2], 540 nM in test [4] and 2540 nM in test [5]. In addition, the figures for the Kact in test [3] and in test [6] were 0.028 µM and 0.097 µM, respectively.

Regarding `Nc1ncnc2c1ccn2[C@@H]1O[C@@H]2COP(=O)(O)O[C@H]2[C@H]1O`, the EC50 in test [1] turned out to be 2060 nM; in test [2], 360 nM; in test [4], 2080 nM; in test [7], 15 nM; in test [5] it was 2750 nM. The values for the Kact in test [3] and in test [6] were 0.199 µM and 0.238 µM, respectively.

Regarding `Nc1ncnc2c1cc(Br)n2[C@@H]1O[C@@H]2COP(=O)(O)O[C@H]2[C@H]1O`, the EC50 came to 300 nM in test [1], 630 nM in test [2], 6400 nM in test [4] and 530 nM in test [5]. Besides, the Kact stood at 0.043 µM in test [3] and 0.072 µM in test [6].
